Source: US7741479B2, “Urea inhibitors of MAP kinases” (Locus Pharmaceuticals, Inc., priority 2004, dated 2010)

Target: T1, p38 (Homo sapiens, UniProt Q16539)
T1 construct: made in house
Assay: Protein Kinase Assay (33P incorporation from γ-[33P]ATP into GST-ATF-2 substrate)
Format: biochemical
Details: compound at 10 μM
Procedure: Human non-activated p38 kinase (MW=43 kDa) was purified according to the protocol described herein. Chemicals were purchased from Calbiochem. Fluorescence characterizations were conducted using a Cary Eclipse (Varian Analytical Instruments, Walnut Creek, Calif.). Research-grade CM5 sensor chips and coupling reagents (N-ethyl-N′-dimethylaminopropylcarbodiimide (EDC) N-hydroxysuccinimide (NHS), and 1 M ethanolamine HCl, pH 8.5) were purchased from Biacore AB (Uppsala, Sweden). The biosensor analyses were conducted using a Biacore 3000 SPR instrument. The kinetic analyses were carried on a Molecular Devices spectrophotometer (Molecular Devices Corporation, CA, USA).
Protein Kinase Assay. The protein kinase activity of p38 was determined by measuring the incorporation of ^33P from γ-[^33P]ATP into the GST-ATF-2 substrate, amino acids 19-96 (Upstate, NY USA). […] Compounds were preincubated with 10 nM p38 for 20 min at 30° C.; the reactions were initiated by the addition of GST-ATF2 and ATP and incubated for 70 min at 30° C. before being stopped by the addition of 10 μL of 600 mM phosphoric acid. The phosphorylated substrate was captured on phosphocellulose 96-well plate (Millipore MAPHNOB 10), washed with 100 mM phosphoric acid, and counted in a BeckmenCoulter LS6500 liquid scintillation counter.

T1 sequence (Q16539 whole entry): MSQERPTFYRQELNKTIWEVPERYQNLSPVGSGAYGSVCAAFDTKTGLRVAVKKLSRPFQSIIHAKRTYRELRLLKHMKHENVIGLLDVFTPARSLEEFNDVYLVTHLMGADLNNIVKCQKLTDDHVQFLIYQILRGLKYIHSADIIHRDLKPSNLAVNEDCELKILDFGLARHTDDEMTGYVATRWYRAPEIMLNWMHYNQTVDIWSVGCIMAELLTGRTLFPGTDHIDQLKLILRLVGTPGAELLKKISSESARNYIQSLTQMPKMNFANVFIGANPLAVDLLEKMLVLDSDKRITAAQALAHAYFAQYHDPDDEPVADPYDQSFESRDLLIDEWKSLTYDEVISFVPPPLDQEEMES

inhibition at 10 µM [%]	SMILES
76 to 100	CC(C)(C)c1cc(C(=O)N2CCS(=O)(=O)CC2)c(NC(=O)Nc2ccc(Cl)cc2)s1 [Example 1, 1-[5-tert-butyl-3-(1,1-dioxo-1λ^6-thiomorpholine-4-carbonyl)thiophen-2-yl]-3-(4-chlorophenyl)urea]
76 to 100	CC(C)(C)c1cc(C(=O)N2CCS(=O)(=O)CC2)c(NC(=O)Nc2cccc3ccccc23)s1 [Example 2, 1-[5-tert-butyl-3-(1,1-dioxo-1λ^6-thiomorpholine-4-carbonyl)thiophen-2-yl]-3-naphthalen-1-ylurea]
76 to 100	CC(C)(C)c1cc(CN2CCS(=O)(=O)CC2)c(NC(=O)Nc2ccc(Cl)cc2)s1 [Example 3, 1-[5-tert-butyl-3-(1,1-dioxo-1λ^6-thiomorpholin-4-ylmethyl)thiophen-2-yl]-3-(4-chlorophenyl)urea]
76 to 100	CC(C)(C)c1cc(C(=O)N2CCS(=O)(=O)CC2)c(NC(=O)Nc2ccc3ccccc3c2)s1 [Example 4, 1-[5-tert-butyl-3-(1,1-dioxo-1λ^6-thiomorpholine-4-carbonyl)thiophen-2-yl]-3-naphthalen-2-ylurea]
76 to 100	CC(C)(C)c1cc(CN2CCS(=O)(=O)CC2)c(NC(=O)Nc2cccc3ccccc23)s1 [Example 5, 1-[5-tert-butyl-3-(1,1-dioxo-1λ^6-thiomorpholin-4-ylmethyl)thiophen-2-yl]-3-naphthalen-1-ylurea]
76 to 100	CC(C)(C)c1cc(CN2CCS(=O)(=O)CC2)c(NC(=O)Nc2ccc3ccccc3c2)s1 [Example 6, 1-[5-tert-butyl-3-(1,1-dioxo-1λ^6-thiomorpholin-4-ylmethyl)thiophen-2-yl]-3-naphthalen-2-ylurea]
51 to 75	CC(C)(C)c1cc(NC(=O)Nc2ccc(Cl)cc2)n(CC(=O)N2CCS(=O)(=O)CC2)n1 [Example 7, 1-{5-tert-butyl-2-[2-(1,1-dioxo-1λ^6-thiomorpholin-4-yl)-2-oxoethyl]-2H-pyrazol-3-yl}-3-(4-chlorophenyl)urea]
51 to 75	CC(C)(C)c1cc(NC(=O)Nc2cccc3ccccc23)n(CC(=O)N2CCS(=O)(=O)CC2)n1 [Example 9, 1-{5-tert-butyl-2-[2-(1,1-dioxo-1λ^6-thiomorpholin-4-yl)-2-oxoethyl]-2H-pyrazol-3-yl}-3-naphthalen-1-ylurea]
76 to 100	CC(C)(C)c1cc(NC(=O)Nc2ccc(Cl)cc2)c(C(=O)N2CCS(=O)(=O)CC2)s1 [Example 10, 1-[5-tert-butyl-2-(1,1-dioxo-1λ^6-thiomorpholine-4-carbonyl)thiophen-3-yl]-3-(4-chlorophenyl)urea]
76 to 100	CC(C)(C)c1cc(NC(=O)Nc2cccc3ccccc23)c(C(=O)N2CCS(=O)(=O)CC2)s1 [Example 11, 1-[5-tert-butyl-2-(1,1-dioxo-1λ^6-thiomorpholine-4-carbonyl)thiophen-3-yl]-3-naphthalen-1-ylurea]
76 to 100	CC(C)(C)c1cc(NC(=O)Nc2ccc3ccccc3c2)c(C(=O)N2CCS(=O)(=O)CC2)s1 [Example 12, 1-[5-tert-butyl-2-(1,1-dioxo-1λ^6-thiomorpholine-4-carbonyl)thiophen-3-yl]-3-naphthalen-2-ylurea]
26 to 50	CC(C)(C)c1cc(NC(=O)Nc2ccc3ccccc3c2)c(CN2CCS(=O)(=O)CC2)s1 [Example 13, 1-[5-tert-butyl-2-(1,1-dioxo-1λ^6-thiomorpholin-4-ylmethyl)thiophen-3-yl]-3-naphthalen-2-ylurea]
0 to 25	CC(C)(C)c1cc(NC(=O)Nc2cccc3ccccc23)c(CN2CCS(=O)(=O)CC2)s1 [Example 14, 1-[5-tert-butyl-2-(1,1-dioxo-1λ^6-thiomorpholin-4-ylmethyl)thiophen-3-yl]-3-naphthalen-1-ylurea]
51 to 75	CC(C)(C)c1cc(NC(=O)Nc2ccc(Cl)cc2)c(CN2CCS(=O)(=O)CC2)s1 [Example 15, 1-[5-tert-butyl-2-(1,1-dioxo-1λ^6-thiomorpholin-4-ylmethyl)thiophen-3-yl]-3-(4-chlorophenyl)urea]
